Source: PubChem BioAssay (NCI)
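The compound was tested at five concentrations on cells cultured in 96-well plates, with a 48-hour exposure period. GI50 marks 50% less growth. At the TGI there is no net growth.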

How the values were obtained:
Assay in all cases: NCI anticancer screen, dose series, 48 h
CCRF-CEM leukemia = system: CCRF-CEM leukemia
COLO 205 colon = system: COLO 205 colon
ACHN renal = system: ACHN renal
SW-620 colon = system: SW-620 colon
OVCAR-5 ovarian = system: OVCAR-5 ovarian
UACC-257 melanoma = system: UACC-257 melanoma
SK-MEL-28 melanoma = system: SK-MEL-28 melanoma
TK-10 renal = system: TK-10 renal
UO-31 renal = system: UO-31 renal
T-47D breast = system: T-47D breast

SMILES | TGI (CCRF-CEM leukemia) [µM] | TGI (COLO 205 colon) [µM] | TGI (ACHN renal) [µM] | TGI (SW-620 colon) [µM] | TGI (OVCAR-5 ovarian) [µM] | TGI (UACC-257 melanoma) [µM] | TGI (SK-MEL-28 melanoma) [µM] | TGI (TK-10 renal) [µM] | TGI (UO-31 renal) [µM] | GI50 (CCRF-CEM leukemia) [µM] | GI50 (COLO 205 colon) [µM] | GI50 (ACHN renal) [µM] | GI50 (SW-620 colon) [µM] | GI50 (OVCAR-5 ovarian) [µM] | GI50 (UACC-257 melanoma) [µM] | GI50 (SK-MEL-28 melanoma) [µM] | GI50 (TK-10 renal) [µM] | GI50 (UO-31 renal) [µM] | GI50 (T-47D breast) [µM] | TGI (T-47D breast) [µM]
CN1CC[C@]2(C)c3cc(O)ccc3CC3CCCC1C32C (some centres not stated) | > 100 | > 100 | > 100 | > 100 | > 100 | > 100 | > 100 | > 100 | > 100 |  |  |  |  |  |  |  |  |  |  | 
COc1ccc(S(=O)(=O)Nc2cc(/C=C\c3cc(OC)c(OC)c(OC)c3)ccc2OC)cc1 | > 100 | 0.158 | 17.3 | > 100 | > 100 | 93.4 | > 100 | 11.5 | 7.48 | 0.176 | 0.0383 | 0.0587 | 0.0785 | 0.323 | 2.98 | 0.143 | 0.0768 | 0.131 |  | 
COC(=O)C1CCCN1C(=O)[C@@H]1CCCN1C(=O)[C@H](Cc1c[nH]c2ccccc12)NC(=S)Nc1cc(C(F)(F)F)cc(C(F)(F)F)c1 (some centres not stated) | 8.55 | 3.21 |  | 12.6 |  | 8.17 | 10.7 | 5 | 14.5 | 2.75 | 1.72 |  | 3.68 |  | 2.4 | 3.54 | 2.11 | 3.63 | 1.98 | 7.2
CN(C)CCNC(=O)c1cccc2[nH]c(-c3cccnc3)nc12 | > 100 | 32.5 | 37 | 42.1 | 64.2 | 39.9 | 83.8 | 53.5 | 39.5 |  |  |  |  |  |  |  |  |  |  | 
COC(=O)[C@]12CC=C3O[C@@H]4OC5(CCCCC5)O[C@@H]4C3[C@@H]1C(=O)CCC2=O (some centres not stated) | > 100 | > 100 | > 100 | > 100 | > 100 | > 100 | > 100 |  | > 100 |  |  |  |  |  |  |  |  |  |  | 
Oc1ccccc1CNCC12CC3CC(CC(C3)C1)C2 |  | 31 | > 100 | 84.8 | > 100 |  | 52.7 | > 100 | > 100 |  | 15.6 | 39.6 | 24.3 | 33 |  | 23.6 | 31.2 | 20.3 | 20.1 | 44.6
Nc1nc(N)c2c(n1)NC(c1ccc(F)cc1)C1CCc3ccccc3C1=N2 (configuration not stated) |  | 3.61 | 17.8 | 17.4 | 26.3 | 17.8 | 19.7 | 16.9 | 17.3 |  | 1.62 | 4.96 | 4.87 | 13.1 | 5.37 | 7.16 | 3.63 | 3.34 | 3.86 | 17.7
Cc1[nH]c(=O)n2c(C)nnc2c1C(=O)Nc1cc(Cl)cc(Cl)c1 | > 100 | 79.4 | > 100 | > 100 | > 100 |  | 60.8 | 52.1 | 68.2 |  |  |  |  |  |  |  |  |  |  | 
CN(C)C=[N+]=[N-] |  | > 100 | > 100 | > 100 | > 100 | > 100 |  | > 100 | > 100 |  |  |  |  |  |  |  |  |  |  | 
CCC[CH2][Sn]([CH2]CCC)([CH2]CCC)[O]C(=O)c1ccc(Cl)cc1Cl |  | 0.375 | 0.34 | 0.335 | 0.315 | 0.313 | 0.302 | 0.267 | 0.304 |  | 0.183 | 0.171 | 0.158 | 0.135 | 0.155 | 0.159 | 0.132 | 0.146 | 0.138 | 0.289
CCCC/C=C1\CCC(C)(CN(C)C)C1=O (configuration not stated) | > 100 |  | > 100 | > 100 | > 100 | > 100 | > 100 | > 100 | > 100 |  |  |  |  |  |  |  |  |  |  | 
COc1ccccc1C1c2cc3c(cc2OC(O)(CO)C1C(=O)O)OCO3 (configuration not stated) (tested in a mixture with another compound) | > 100 | > 100 | > 100 | > 100 | > 100 | > 100 | > 100 | > 100 | > 100 |  |  |  |  |  |  |  |  |  |  | 
C[C@]12CCC(=O)C(O)=C1CC[C@@H]1C2CC[C@]2(C)Nc3c(cnn3-c3ccccc3)CC12 (some centres not stated) | > 100 |  | > 100 | > 100 | > 100 | > 100 | > 100 | > 100 | > 100 |  |  |  |  |  |  |  |  |  |  | 
